Assay results reported in ChEMBL document CHEMBL1201862, “PubChem BioAssay data set” (2004).
Activity calls are given as the source filed them. For most assays here, no stated cut-off is given here; in the data, actives have a measured EC50 and inactives only a lower limit.

Key:
[1] = fluconazole-exposed Candida albicans growth modulators – fluorescence, retest, confirmation (AID 2467); type: functional, cell-based
[2] = target: T1, Serine/threonine-protein phosphatase (Candida dubliniensis (strain CD36 / CBS 7987 / NCPF 3949 / NRRLY-17841) (Yeast), UniProt B9W6M3); assay: blockers of CaCl2-induced CDRE-lacZ signaling – S. cerevisiae, luminescence, secondary, dose response (AID 2388); type: functional, cell-based;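 further: yeast reporter cells carrying a calcineurin-responsive lacZ construct stimulated with calcium chloride; luminescent beta-galactosidase reporter signal in whole cells rather than isolated phosphatase activity; potency for inhibition where a drop in reporter signal means calcineurin blockade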
T1 sequence (B9W6M3 whole entry): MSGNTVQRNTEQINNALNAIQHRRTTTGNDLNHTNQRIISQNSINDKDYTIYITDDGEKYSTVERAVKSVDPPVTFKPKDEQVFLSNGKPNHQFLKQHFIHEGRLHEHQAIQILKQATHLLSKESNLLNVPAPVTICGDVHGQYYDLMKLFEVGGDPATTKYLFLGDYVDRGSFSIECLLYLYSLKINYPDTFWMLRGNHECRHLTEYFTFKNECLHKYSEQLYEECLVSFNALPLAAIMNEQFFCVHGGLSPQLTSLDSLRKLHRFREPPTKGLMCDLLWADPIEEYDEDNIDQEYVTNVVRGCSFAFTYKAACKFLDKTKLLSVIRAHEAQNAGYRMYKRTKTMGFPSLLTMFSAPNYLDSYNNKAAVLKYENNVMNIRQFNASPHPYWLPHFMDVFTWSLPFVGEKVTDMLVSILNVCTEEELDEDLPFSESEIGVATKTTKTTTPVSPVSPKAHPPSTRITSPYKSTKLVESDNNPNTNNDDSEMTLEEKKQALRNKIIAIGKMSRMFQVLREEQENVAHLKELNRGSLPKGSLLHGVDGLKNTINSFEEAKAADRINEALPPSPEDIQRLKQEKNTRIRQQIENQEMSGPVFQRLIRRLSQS

Nonstructural protein 1 = Nonstructural protein 1 (Influenza A virus, UniProt Q194T2); type: functional, Influenza A virus (A/California/07/2009(H1N1))
Sequence of Nonstructural protein 1 (Q194T2 whole entry): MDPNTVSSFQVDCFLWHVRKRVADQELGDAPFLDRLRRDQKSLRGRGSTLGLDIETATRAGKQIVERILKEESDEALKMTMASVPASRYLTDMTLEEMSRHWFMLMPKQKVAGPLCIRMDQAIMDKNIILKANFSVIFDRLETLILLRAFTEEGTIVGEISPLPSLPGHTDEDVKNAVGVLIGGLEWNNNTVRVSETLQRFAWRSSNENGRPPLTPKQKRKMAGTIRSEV

For `CCCCC(=O)NC(c1ccc(N(C)C)cc1)c1ccc2cccnc2c1O` (stereo not drawn), the EC50 [1] was 0.832 µM (active), the EC50 [2] was > 180 µM (inactive) and the IC50 (Nonstructural protein 1) was 24.9 µM (active).
